Laboratory results: patent US12522583B2, “Benzimidazole derivatives and aza-benzimidazole derivatives as Janus kinase 2 inhibitors and uses thereof” (Dana-Farber Cancer Institute, Inc., priority 2018, dated 2026)

Legend:
Experiment in all cases: KINOMEscan
Format in all cases: binding
CAMKK1 = CAMKK1 (Homo sapiens (Human), UniProt Q8N5S9); details: read-out: percent control
From the text: (§1) Example 2. In Vitro Kinase Selectivity Profiling of the Compounds of the Present Disclosure

RET(V804L) = RET(V804L) (Homo sapiens (Human), UniProt P07949, V804L); details: read-out: percent control
From the text: as §1

WNK2 = WNK2 (Homo sapiens (Human), UniProt Q9Y3S1); details: read-out: percent control
From the text: as §1

CAMK1G = CAMK1G (Homo sapiens (Human), UniProt Q96NX5); details: read-out: percent control
From the text: as §1

TRKA = TRKA (Homo sapiens (Human), UniProt P04629); details: read-out: percent control
From the text: as §1

DYRK2 = DYRK2 (Homo sapiens (Human), UniProt Q92630); details: read-out: percent control
From the text: as §1

NEK4 = NEK4 (Homo sapiens (Human), UniProt P51957); details: read-out: percent control
From the text: as §1

CDK4-cyclinD3 = CDK4-cyclinD3 (Homo sapiens (Human), UniProt P11802); details: read-out: percent control
From the text: as §1

CDK3 = CDK3 (Homo sapiens (Human), UniProt Q00526); details: read-out: percent control
From the text: as §1

PRKCE = PRKCE (Homo sapiens (Human), UniProt Q02156); details: read-out: percent control
From the text: as §1

AURKB = AURKB (Homo sapiens (Human), UniProt Q96GD4); details: read-out: percent control
From the text: as §1

PIP5K2B = PIP5K2B (Homo sapiens (Human), UniProt P78356); details: read-out: percent control
From the text: as §1

BRAF(V600E) = BRAF(V600E) (Homo sapiens (Human), UniProt P15056, V600E); details: read-out: percent control
From the text: as §1

LRRK2 = LRRK2 (Homo sapiens (Human), UniProt Q5S007); details: read-out: percent control
From the text: as §1

CHEK2 = CHEK2 (Homo sapiens (Human), UniProt O96017); details: read-out: percent control
From the text: as §1

MEK5 = MEK5 (Homo sapiens (Human), UniProt Q13163); details: read-out: percent control
From the text: as §1

PIP5K1C = PIP5K1C (Homo sapiens (Human), UniProt O60331); details: read-out: percent control
From the text: as §1

MERTK = MERTK (Homo sapiens (Human), UniProt Q12866); details: read-out: percent control
From the text: as §1

FLT3-autoinhibited = FLT3-autoinhibited (Homo sapiens (Human), UniProt P36888); details: read-out: percent control
From the text: as §1

CSF1R-autoinhibited = CSF1R-autoinhibited (Homo sapiens (Human), UniProt P07333); details: read-out: percent control
From the text: as §1

RET(V804M) = RET(V804M) (Homo sapiens (Human), UniProt P07949, V804M); details: read-out: percent control
From the text: as §1

PRP4 = PRP4 (Homo sapiens (Human), UniProt Q13523); details: read-out: percent control
From the text: as §1

YSK4 = YSK4 (Homo sapiens (Human), UniProt Q56UN5); details: read-out: percent control
From the text: as §1

TSSK3 = TSSK3 (Homo sapiens (Human), UniProt Q96PN8); details: read-out: percent control
From the text: as §1

PAK6 = PAK6 (Homo sapiens (Human), UniProt Q9NQU5); details: read-out: percent control
From the text: as §1

PHKG1 = PHKG1 (Homo sapiens (Human), UniProt Q16816); details: read-out: percent control
From the text: as §1

BRAF = BRAF (Homo sapiens (Human), UniProt P15056); details: read-out: percent control
From the text: as §1

CAMK2D = CAMK2D (Homo sapiens (Human), UniProt Q13557); details: read-out: percent control
From the text: as §1

MYO3A = MYO3A (Homo sapiens (Human), UniProt Q8NEV4); details: read-out: percent control
From the text: as §1

[1] = biological target: ABL1(F317I)-phosphorylated (Homo sapiens (Human), UniProt P00519, F317I); details: read-out: percent control
From the text: as §1

TAOK2 = TAOK2 (Homo sapiens (Human), UniProt Q9UL54); details: read-out: percent control
From the text: as §1

PIK3C2G = PIK3C2G (Homo sapiens (Human), UniProt O75747); details: read-out: percent control
From the text: as §1

FLT3(ITD, D835V) = details: 1 μM
From the text: as §1

WNK4 = WNK4 (Homo sapiens (Human), UniProt Q96J92); details: read-out: percent control
From the text: as §1

PCTK3 = PCTK3 (Homo sapiens (Human), UniProt Q07002); details: read-out: percent control
From the text: as §1

IRAK1 = IRAK1 (Homo sapiens (Human), UniProt P51617); details: read-out: percent control
From the text: as §1

AKT2 = AKT2 (Homo sapiens (Human), UniProt P31751); details: read-out: percent control
From the text: as §1

SBK1 = SBK1 (Homo sapiens (Human), UniProt Q52WX2); details: read-out: percent control
From the text: as §1

PAK1 = PAK1 (Homo sapiens (Human), UniProt Q13153); details: read-out: percent control
From the text: as §1

IKK-epsilon = IKK-epsilon (Homo sapiens (Human), UniProt Q14164); details: read-out: percent control
From the text: as §1

MST4 = MST4 (Homo sapiens (Human), UniProt Q9P289); details: read-out: percent control
From the text: as §1

Chain of BRAF (P15056 whole entry): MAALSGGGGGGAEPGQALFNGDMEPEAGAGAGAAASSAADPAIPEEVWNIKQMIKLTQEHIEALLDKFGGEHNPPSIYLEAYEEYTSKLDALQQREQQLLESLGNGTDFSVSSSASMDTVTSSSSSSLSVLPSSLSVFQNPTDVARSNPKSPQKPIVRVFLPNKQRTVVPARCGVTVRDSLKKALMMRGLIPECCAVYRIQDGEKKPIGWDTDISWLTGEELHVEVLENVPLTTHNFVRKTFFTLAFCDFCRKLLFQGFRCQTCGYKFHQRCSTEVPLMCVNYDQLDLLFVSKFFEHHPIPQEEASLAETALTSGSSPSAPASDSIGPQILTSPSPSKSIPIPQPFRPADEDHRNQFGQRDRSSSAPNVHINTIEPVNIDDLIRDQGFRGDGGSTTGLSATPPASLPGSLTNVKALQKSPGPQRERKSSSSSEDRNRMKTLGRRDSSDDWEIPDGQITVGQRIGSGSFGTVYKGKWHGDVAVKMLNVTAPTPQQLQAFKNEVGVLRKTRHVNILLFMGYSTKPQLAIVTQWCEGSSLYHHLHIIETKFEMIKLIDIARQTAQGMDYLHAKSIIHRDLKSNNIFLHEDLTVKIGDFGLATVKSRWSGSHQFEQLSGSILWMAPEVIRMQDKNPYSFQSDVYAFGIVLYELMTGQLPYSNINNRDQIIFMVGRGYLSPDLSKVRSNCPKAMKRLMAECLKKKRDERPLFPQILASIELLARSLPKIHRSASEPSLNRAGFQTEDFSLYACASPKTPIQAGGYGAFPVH
Chain of MST4 (Q9P289 whole entry): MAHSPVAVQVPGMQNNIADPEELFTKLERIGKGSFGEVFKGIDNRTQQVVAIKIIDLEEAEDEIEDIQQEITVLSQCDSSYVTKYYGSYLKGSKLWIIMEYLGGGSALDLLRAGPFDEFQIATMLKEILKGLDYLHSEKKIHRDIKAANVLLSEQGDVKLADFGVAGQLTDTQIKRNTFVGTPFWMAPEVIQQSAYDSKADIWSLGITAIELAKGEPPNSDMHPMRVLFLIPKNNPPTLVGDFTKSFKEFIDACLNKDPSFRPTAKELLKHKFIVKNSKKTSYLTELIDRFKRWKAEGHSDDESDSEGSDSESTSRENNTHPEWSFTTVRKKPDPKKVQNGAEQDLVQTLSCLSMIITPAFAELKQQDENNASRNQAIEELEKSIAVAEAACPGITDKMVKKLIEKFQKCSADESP
Chain of PRP4 (Q13523 whole entry, looked up): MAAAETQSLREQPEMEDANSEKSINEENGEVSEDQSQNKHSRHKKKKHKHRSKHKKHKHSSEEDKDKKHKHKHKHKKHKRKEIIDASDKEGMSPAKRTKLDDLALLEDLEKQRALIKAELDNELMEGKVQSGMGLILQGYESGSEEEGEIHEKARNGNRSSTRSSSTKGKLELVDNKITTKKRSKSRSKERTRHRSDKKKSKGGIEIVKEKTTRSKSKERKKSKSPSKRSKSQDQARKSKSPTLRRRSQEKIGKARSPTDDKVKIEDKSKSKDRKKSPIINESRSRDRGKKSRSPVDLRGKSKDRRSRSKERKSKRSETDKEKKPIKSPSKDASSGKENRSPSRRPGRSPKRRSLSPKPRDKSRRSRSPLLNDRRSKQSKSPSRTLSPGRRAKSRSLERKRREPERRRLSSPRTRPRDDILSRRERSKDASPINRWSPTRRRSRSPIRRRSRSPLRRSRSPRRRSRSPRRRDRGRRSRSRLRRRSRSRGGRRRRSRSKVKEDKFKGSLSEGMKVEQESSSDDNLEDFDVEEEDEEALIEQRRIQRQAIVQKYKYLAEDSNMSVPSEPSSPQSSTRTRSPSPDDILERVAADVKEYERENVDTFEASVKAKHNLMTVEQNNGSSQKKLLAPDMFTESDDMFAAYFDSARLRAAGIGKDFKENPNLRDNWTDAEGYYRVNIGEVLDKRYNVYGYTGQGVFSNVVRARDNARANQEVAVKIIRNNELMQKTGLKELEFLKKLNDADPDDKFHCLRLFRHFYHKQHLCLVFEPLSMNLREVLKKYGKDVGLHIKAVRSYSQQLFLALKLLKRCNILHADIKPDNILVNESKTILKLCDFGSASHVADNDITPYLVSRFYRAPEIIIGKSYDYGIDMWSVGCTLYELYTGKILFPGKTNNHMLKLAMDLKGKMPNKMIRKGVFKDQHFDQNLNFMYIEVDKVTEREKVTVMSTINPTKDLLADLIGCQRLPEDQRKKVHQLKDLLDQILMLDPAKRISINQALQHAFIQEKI
Chain of PHKG1 (Q16816 whole entry): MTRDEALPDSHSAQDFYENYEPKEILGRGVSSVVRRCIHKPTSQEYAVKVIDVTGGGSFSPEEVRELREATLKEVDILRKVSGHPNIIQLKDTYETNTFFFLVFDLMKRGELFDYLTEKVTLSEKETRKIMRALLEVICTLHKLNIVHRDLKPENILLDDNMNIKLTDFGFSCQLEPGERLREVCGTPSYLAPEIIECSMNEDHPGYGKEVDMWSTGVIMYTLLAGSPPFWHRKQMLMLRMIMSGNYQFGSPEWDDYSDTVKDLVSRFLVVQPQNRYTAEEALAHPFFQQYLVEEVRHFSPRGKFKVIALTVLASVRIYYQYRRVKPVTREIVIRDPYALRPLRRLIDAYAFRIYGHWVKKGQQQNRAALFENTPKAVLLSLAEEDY
Chain of PAK1 (Q13153 whole entry): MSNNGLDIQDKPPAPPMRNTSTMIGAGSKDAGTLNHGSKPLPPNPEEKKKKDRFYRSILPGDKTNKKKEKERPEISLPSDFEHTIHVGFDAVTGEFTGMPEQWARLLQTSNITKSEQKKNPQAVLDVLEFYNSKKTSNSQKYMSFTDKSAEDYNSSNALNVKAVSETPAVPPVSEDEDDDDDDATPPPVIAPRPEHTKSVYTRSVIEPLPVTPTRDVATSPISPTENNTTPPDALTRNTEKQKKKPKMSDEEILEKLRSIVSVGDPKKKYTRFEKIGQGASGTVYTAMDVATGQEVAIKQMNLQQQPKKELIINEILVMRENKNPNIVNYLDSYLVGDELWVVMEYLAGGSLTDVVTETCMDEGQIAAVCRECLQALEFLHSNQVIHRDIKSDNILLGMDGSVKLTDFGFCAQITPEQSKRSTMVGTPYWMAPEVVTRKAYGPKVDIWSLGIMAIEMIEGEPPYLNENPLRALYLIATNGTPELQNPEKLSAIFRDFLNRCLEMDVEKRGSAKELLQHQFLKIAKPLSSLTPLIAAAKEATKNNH
Chain of CDK3 (Q00526 whole entry): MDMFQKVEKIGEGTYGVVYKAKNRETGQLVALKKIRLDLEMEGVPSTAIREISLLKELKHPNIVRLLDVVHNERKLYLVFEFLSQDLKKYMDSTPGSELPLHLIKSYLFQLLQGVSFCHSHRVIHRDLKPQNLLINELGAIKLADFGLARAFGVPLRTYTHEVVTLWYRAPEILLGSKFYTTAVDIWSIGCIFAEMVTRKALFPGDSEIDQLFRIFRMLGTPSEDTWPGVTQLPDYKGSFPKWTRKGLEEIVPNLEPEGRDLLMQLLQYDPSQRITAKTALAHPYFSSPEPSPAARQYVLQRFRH
Chain of TRKA (P04629 33-796): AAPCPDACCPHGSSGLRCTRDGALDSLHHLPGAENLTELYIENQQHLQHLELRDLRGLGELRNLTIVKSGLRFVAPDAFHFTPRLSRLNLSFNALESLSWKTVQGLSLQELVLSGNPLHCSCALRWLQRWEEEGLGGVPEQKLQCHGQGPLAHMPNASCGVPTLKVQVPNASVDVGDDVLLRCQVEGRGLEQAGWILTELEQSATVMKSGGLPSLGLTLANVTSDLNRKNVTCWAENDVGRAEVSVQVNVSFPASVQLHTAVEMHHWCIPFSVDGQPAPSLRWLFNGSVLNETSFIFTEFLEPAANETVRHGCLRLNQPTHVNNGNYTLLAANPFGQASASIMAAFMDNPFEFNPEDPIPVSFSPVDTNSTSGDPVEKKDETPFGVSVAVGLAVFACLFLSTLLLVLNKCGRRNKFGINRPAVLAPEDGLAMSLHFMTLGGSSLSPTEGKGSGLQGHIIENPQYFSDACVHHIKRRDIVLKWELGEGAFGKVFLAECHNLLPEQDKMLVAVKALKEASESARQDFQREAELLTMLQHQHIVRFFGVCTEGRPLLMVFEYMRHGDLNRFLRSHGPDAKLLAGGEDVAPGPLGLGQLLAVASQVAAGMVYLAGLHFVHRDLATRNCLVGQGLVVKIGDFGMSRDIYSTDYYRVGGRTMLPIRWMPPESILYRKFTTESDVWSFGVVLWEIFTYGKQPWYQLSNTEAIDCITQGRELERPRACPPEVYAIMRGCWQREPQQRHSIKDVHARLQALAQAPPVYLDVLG
Chain of CHEK2 (O96017 whole entry): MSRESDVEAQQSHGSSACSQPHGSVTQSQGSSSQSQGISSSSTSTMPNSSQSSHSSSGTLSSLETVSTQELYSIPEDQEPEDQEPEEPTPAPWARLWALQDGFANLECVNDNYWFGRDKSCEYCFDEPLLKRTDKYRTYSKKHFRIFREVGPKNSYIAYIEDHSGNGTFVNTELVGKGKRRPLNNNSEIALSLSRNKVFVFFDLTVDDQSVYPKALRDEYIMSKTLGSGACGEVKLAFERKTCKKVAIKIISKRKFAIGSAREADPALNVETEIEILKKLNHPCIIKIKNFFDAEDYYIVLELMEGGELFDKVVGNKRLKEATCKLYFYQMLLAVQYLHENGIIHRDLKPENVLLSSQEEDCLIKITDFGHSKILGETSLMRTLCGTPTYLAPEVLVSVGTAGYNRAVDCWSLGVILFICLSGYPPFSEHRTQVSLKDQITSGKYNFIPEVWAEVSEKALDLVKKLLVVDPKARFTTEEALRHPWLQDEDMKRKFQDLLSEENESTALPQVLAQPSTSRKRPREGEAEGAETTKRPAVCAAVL
Chain of TSSK3 (Q96PN8 whole entry): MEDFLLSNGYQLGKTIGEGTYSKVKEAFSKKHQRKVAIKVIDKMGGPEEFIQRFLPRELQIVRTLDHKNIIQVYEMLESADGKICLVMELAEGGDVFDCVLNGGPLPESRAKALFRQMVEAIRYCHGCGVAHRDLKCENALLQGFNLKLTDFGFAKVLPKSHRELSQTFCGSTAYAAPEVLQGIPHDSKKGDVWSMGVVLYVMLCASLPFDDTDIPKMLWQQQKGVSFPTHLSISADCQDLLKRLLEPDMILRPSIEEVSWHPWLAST

`CCN1CCN(Cc2ccc(Nc3nc4ccc(Oc5ccnc(NC(C)=O)c5)cc4n3C)cc2C(F)(F)F)CC1` [Compound I-2] showed a remaining binding at 1 µM (CAMKK1) of 100%, a remaining binding at 1 µM (RET(V804L)) of 15% and a remaining binding at 1 µM (WNK2) of 98%. It also gave a remaining binding at 1 µM (CAMK1G) of 100%, a remaining binding at 1 µM (TRKA) of 31% and a remaining binding at 1 µM (DYRK2) of 83%. For the same compound, the remaining binding at 1 µM (NEK4) was 56%, the remaining binding at 1 µM (CDK4-cyclinD3) was 72% and the remaining binding at 1 µM (CDK3) was 100%. The remaining binding at 1 µM (PRKCE) was 100%, the remaining binding at 1 µM (AURKB) was 49% and the remaining binding at 1 µM (PIP5K2B) was 57%. For the same compound, the remaining binding at 1 µM (BRAF(V600E)) was 0.8%, the remaining binding at 1 µM (LRRK2) was 100% and the remaining binding at 1 µM (CHEK2) was 96%. For the same compound, the remaining binding at 1 µM (MEK5) was 59%, the remaining binding at 1 µM (PIP5K1C) was 81% and the remaining binding at 1 µM (MERTK) was 32%. For the same compound, the remaining binding at 1 µM (FLT3-autoinhibited) was 100%, the remaining binding at 1 µM (CSF1R-autoinhibited) was 52% and the remaining binding at 1 µM (RET(V804M)) was 9.9%. For the same compound, the remaining binding at 1 µM (PRP4) was 100%, the remaining binding at 1 µM (YSK4) was 51% and the remaining binding at 1 µM (TSSK3) was 86%. For the same compound, the remaining binding at 1 µM (PAK6) was 93%, the remaining binding at 1 µM (PHKG1) was 94% and the remaining binding at 1 µM (BRAF) was 3.9%. The remaining binding at 1 µM (CAMK2D) was 100%, the remaining binding at 1 µM (MYO3A) was 96% and the remaining binding at 1 µM [1] was 82%. It also gave a remaining binding at 1 µM (TAOK2) of 0.25%, a remaining binding at 1 µM (PIK3C2G) of 80% and a percent control (FLT3(ITD, D835V)) of 100%. It also gave a remaining binding at 1 µM (WNK4) of 93%, a remaining binding at 1 µM (PCTK3) of 78% and a remaining binding at 1 µM (IRAK1) of 79%. It also gave a remaining binding at 1 µM (AKT2) of 100%, a remaining binding at 1 µM (SBK1) of 84% and a remaining binding at 1 µM (PAK1) of 88%. The remaining binding at 1 µM (IKK-epsilon) was 91% and the remaining binding at 1 µM (MST4) was 89%.

Compound `CCN1CCN(Cc2ccc(Nc3nc4ccc(Oc5ccnc(NC(C)=O)c5)c(C)c4n3C)cc2C(F)(F)F)CC1` [Compound I-6, N-(4-(2-(4-((4-ethylpiperazin-1-yl)methyl)-3-(trifluoromethyl)phenylamino)-1,7-dimethyl-1H-benzo[d]imidazol-6-yloxy)pyridin-2-yl)acetamide] has a remaining binding at 1 µM (CAMKK1) of 100%, a remaining binding at 1 µM (RET(V804L)) of 7.8% and a remaining binding at 1 µM (WNK2) of 66%. For the same compound, the remaining binding at 1 µM (CAMK1G) was 99%, the remaining binding at 1 µM (TRKA) was 3.5% and the remaining binding at 1 µM (DYRK2) was 97%. For the same compound, the remaining binding at 1 µM (NEK4) was 56%, the remaining binding at 1 µM (CDK4-cyclinD3) was 95% and the remaining binding at 1 µM (CDK3) was 74%. It also gave a remaining binding at 1 µM (PRKCE) of 92%, a remaining binding at 1 µM (AURKB) of 81% and a remaining binding at 1 µM (PIP5K2B) of 98%. It also gave a remaining binding at 1 µM (BRAF(V600E)) of 1.8%, a remaining binding at 1 µM (LRRK2) of 86% and a remaining binding at 1 µM (CHEK2) of 90%. It also gave a remaining binding at 1 µM (MEK5) of 34%, a remaining binding at 1 µM (PIP5K1C) of 85% and a remaining binding at 1 µM (MERTK) of 59%. For the same compound, the remaining binding at 1 µM (FLT3-autoinhibited) was 66%, the remaining binding at 1 µM (CSF1R-autoinhibited) was 68% and the remaining binding at 1 µM (RET(V804M)) was 4.5%. It also gave a remaining binding at 1 µM (PRP4) of 100%, a remaining binding at 1 µM (YSK4) of 67% and a remaining binding at 1 µM (TSSK3) of 100%. For the same compound, the remaining binding at 1 µM (PAK6) was 90%, the remaining binding at 1 µM (PHKG1) was 91% and the remaining binding at 1 µM (BRAF) was 9.2%. The remaining binding at 1 µM (CAMK2D) was 85%, the remaining binding at 1 µM (MYO3A) was 99% and the remaining binding at 1 µM [1] was 34%. It also gave a remaining binding at 1 µM (TAOK2) of 0%, a remaining binding at 1 µM (PIK3C2G) of 86% and a percent control (FLT3(ITD, D835V)) of 61%. For the same compound, the remaining binding at 1 µM (WNK4) was 82%, the remaining binding at 1 µM (PCTK3) was 76% and the remaining binding at 1 µM (IRAK1) was 38%. It also gave a remaining binding at 1 µM (AKT2) of 100%, a remaining binding at 1 µM (SBK1) of 89% and a remaining binding at 1 µM (PAK1) of 77%. It also gave a remaining binding at 1 µM (IKK-epsilon) of 92% and a remaining binding at 1 µM (MST4) of 100%.
